Results on twelve compounds are retold here after ChEMBL document CHEMBL1135076, “Leishmanicidal activity of some aliphatic diamines and amino-alcohols” (Bioorg Med Chem Lett, 2002).

Type in all cases: functional, organism-based
Experiment [1] deals with Leishmania donovani. Briefly: In vitro for leishmanicidal activity against Leishmania donovani (PP75) at the concentration of 50 ug/mL.
Experiment [2] relates to Leishmania donovani. Briefly: In vitro for leishmanicidal activity against Leishmania donovani (PP75) at the concentration of 100 ug/mL.
For experiment [3], the system named is Leishmania braziliensis. Briefly: In vitro for leishmanicidal activity against Leishmania brasiliensis (2903) at the concentration of 100 ug/mL.
Experiment [4] concerns Leishmania amazonensis. Briefly: In vitro for leishmanicidal activity against Leishmania amazonensis (PH8) at the concentration of 50 ug/mL.
Experiment [5] deals with Leishmania braziliensis. Briefly: Tested in vitro for leishmanicidal activity against Leishmania brasiliensis (2903) at the concentration of 10 ug/mL;+ indicates Less than 70% lysis of parasites.
The test system of experiment [6] is Leishmania amazonensis. Briefly: In vitro for leishmanicidal activity against Leishmania amazonensis (PH8) at the concentration of 100 ug/mL.
For experiment [7], the system named is Leishmania amazonensis. Briefly: In vitro for leishmanicidal activity against Leishmania amazonensis (PH8) at the concentration of 10 ug/mL.
In experiment [8] the test system is Leishmania donovani. Briefly: In vitro for leishmanicidal activity against Leishmania donovani (PP75) at the concentration of 10 ug/mL.
Experiment [9] has as its system Leishmania amazonensis. Briefly: In vitro for leishmanicidal activity against Leishmania amazonensis (PH8) at 25 ug/mL; No lysis of parasites.
In experiment [10] the test system is Leishmania braziliensis. Briefly: In vitro for leishmanicidal activity against Leishmania brasiliensis (2903) at the concentration of 10 ug/mL.
Experiment [11] has as its system Leishmania braziliensis. Briefly: Tested in vitro for leishmanicidal activity against Leishmania brasiliensis (2903) at the concentration of 100 ug/mL; ++ indicates 80-90% lysis of parasites.
Experiment [12] relates to Leishmania donovani. Briefly: Tested in vitro for leishmanicidal activity against Leishmania donovani (PP75) at the concentration of 10 ug/mL.
The subject of experiment [13] is Leishmania donovani. Briefly: In vitro for leishmanicidal activity against Leishmania donovani (PP75) at the concentration of 25 ug/mL.
The test system of experiment [14] is Leishmania braziliensis. Briefly: In vitro for leishmanicidal activity against Leishmania brasiliensis (2903) at the concentration of 25 ug/mL.
Experiment [15] relates to Leishmania braziliensis. Briefly: In vitro for leishmanicidal activity against Leishmania brasiliensis (2903) at the concentration of 50 ug/mL.
In experiment [16] the test system is Leishmania braziliensis. Briefly: Tested in vitro for leishmanicidal activity against Leishmania brasiliensis (2903) at the concentration of 100 ug/mL; + indicates Less than 70% lysis of parasites.

`CCCCCCCCCCCCCCC(N)CN(CC)CC` (configuration not stated): the Activity entry in the experiment on Leishmania donovani [1] is “+”; with Leishmania donovani [2] it was “+”; in the experiment with Leishmania braziliensis [3], “+”; in the experiment with Leishmania amazonensis [4] it was “+”; with Leishmania braziliensis [5], “Less than 70% lysis of parasites”; in the experiment on Leishmania amazonensis [6], “+”. Besides, the Activity result with Leishmania amazonensis [7] and in the experiment with Leishmania donovani [8] was “Less than 70% lysis of parasites” each time.
Take `CCCCCCCCCCCCCCC(N)CN` (configuration not stated): the Activity in the experiment with Leishmania donovani [1], in the experiment on Leishmania donovani [2], in the experiment on Leishmania amazonensis [9], in the experiment with Leishmania braziliensis [10], with Leishmania braziliensis [11] and in the experiment with Leishmania donovani [12] was 80-90% lysis of parasites each time. Further, the Activity in the experiment on Leishmania donovani [13], with Leishmania amazonensis [4], in the experiment on Leishmania amazonensis [6], in the experiment with Leishmania amazonensis [7], in the experiment with Leishmania braziliensis [14] and with Leishmania braziliensis [15] was 80-90% lysis of parasites in each case.
Regarding `CCCCCCCCCCCCCCC(CO)NC(=O)CCCCCC` (configuration not stated), the Activity entry with Leishmania donovani [1], in the experiment on Leishmania donovani [2], in the experiment with Leishmania amazonensis [9], in the experiment with Leishmania braziliensis [10], in the experiment with Leishmania donovani [12] and in the experiment on Leishmania braziliensis [16] was “Less than 70% lysis of parasites” throughout. Besides, the Activity entry in the experiment on Leishmania donovani [13], in the experiment on Leishmania amazonensis [4], in the experiment on Leishmania amazonensis [6], in the experiment with Leishmania amazonensis [7], with Leishmania braziliensis [14] and in the experiment on Leishmania braziliensis [15] was “Less than 70% lysis of parasites” throughout.
On to `CCCCCCCCCCCCCCC(COCc1ccccc1)NC(=O)CCCC(=O)O` (configuration not stated), for which the Activity in the experiment with Leishmania donovani [1], with Leishmania donovani [2], in the experiment with Leishmania amazonensis [9], in the experiment with Leishmania braziliensis [10], with Leishmania braziliensis [11] and with Leishmania donovani [12] was 80-90% lysis of parasites each time. The Activity in the experiment with Leishmania donovani [13], with Leishmania amazonensis [4], in the experiment with Leishmania amazonensis [6], with Leishmania amazonensis [7], in the experiment with Leishmania braziliensis [14] and with Leishmania braziliensis [15] was 80-90% lysis of parasites throughout.
Turning to `CCCCCCCCCCCCCCC(NC(=O)OC(C)(C)C)C(=O)O` (configuration not stated), the Activity in the experiment with Leishmania donovani [1], in the experiment with Leishmania donovani [2], with Leishmania amazonensis [9], with Leishmania braziliensis [10], with Leishmania braziliensis [11] and in the experiment on Leishmania donovani [12] was 80-90% lysis of parasites each time. The Activity in the experiment with Leishmania donovani [13], in the experiment with Leishmania amazonensis [4], with Leishmania amazonensis [6], in the experiment with Leishmania amazonensis [7], with Leishmania braziliensis [14] and in the experiment on Leishmania braziliensis [15] was 80-90% lysis of parasites throughout.
Take `CCCCCCCCCCCCCCC(N)CO` (configuration not stated): the Activity in the experiment on Leishmania donovani [1], in the experiment on Leishmania donovani [2], in the experiment on Leishmania amazonensis [9], in the experiment on Leishmania braziliensis [10], with Leishmania braziliensis [11] and in the experiment with Leishmania donovani [12] was 80-90% lysis of parasites in each case. Moreover, the Activity in the experiment with Leishmania donovani [13], in the experiment with Leishmania amazonensis [4], in the experiment with Leishmania amazonensis [6], with Leishmania amazonensis [7], in the experiment on Leishmania braziliensis [14] and with Leishmania braziliensis [15] was 80-90% lysis of parasites in each case.
For `C[C@@H]1[C@H](O)[C@@H](C)/C=C/C=C/C=C/C=C/C=C/C=C/C=C/[C@H](O[C@@H]2O[C@H](C)[C@@H](O)[C@H](N)[C@@H]2O)C[C@@H]2O[C@](O)(C[C@@H](O)C[C@@H](O)[C@H](O)CC[C@@H](O)C[C@@H](O)CC(=O)O[C@H]1C)C[C@H](O)[C@H]2C(=O)O`, the Activity entry with Leishmania donovani [1], in the experiment on Leishmania donovani [2], in the experiment with Leishmania amazonensis [4] and in the experiment on Leishmania amazonensis [6] was “+” each time.
For `CCCCCCCCCCCCCCC(COC(=O)CCCCCC)NC(=O)CCCCCC` (configuration not stated), the Activity in the experiment with Leishmania donovani [1], with Leishmania donovani [2], with Leishmania amazonensis [9], in the experiment with Leishmania braziliensis [10], with Leishmania braziliensis [11] and with Leishmania donovani [12] was 80-90% lysis of parasites in each case. Also, the Activity with Leishmania donovani [13], in the experiment with Leishmania amazonensis [4], with Leishmania amazonensis [6], with Leishmania amazonensis [7], with Leishmania braziliensis [14] and in the experiment on Leishmania braziliensis [15] was 80-90% lysis of parasites each time.
As to `CCCCCCCCCCCCCCC(COCc1ccccc1)NCC(=O)OCC` (configuration not stated), the Activity with Leishmania donovani [1], in the experiment with Leishmania donovani [2], in the experiment with Leishmania amazonensis [9], in the experiment on Leishmania braziliensis [10], in the experiment with Leishmania braziliensis [11] and in the experiment with Leishmania donovani [12] was 80-90% lysis of parasites each time. The Activity in the experiment on Leishmania donovani [13], in the experiment on Leishmania amazonensis [4], in the experiment with Leishmania amazonensis [6], in the experiment with Leishmania amazonensis [7], in the experiment on Leishmania braziliensis [14] and in the experiment on Leishmania braziliensis [15] was 80-90% lysis of parasites each time.
For the compound `CCCCCCCCCCCCCCC(CN)NC(=O)OC(C)(C)C` (configuration not stated), the Activity with Leishmania donovani [1], with Leishmania donovani [2], with Leishmania amazonensis [9], in the experiment on Leishmania braziliensis [10], in the experiment with Leishmania braziliensis [11] and with Leishmania donovani [12] was 80-90% lysis of parasites throughout. In addition, the Activity in the experiment on Leishmania donovani [13], in the experiment with Leishmania amazonensis [4], in the experiment on Leishmania amazonensis [6], in the experiment with Leishmania amazonensis [7], in the experiment on Leishmania braziliensis [14] and in the experiment on Leishmania braziliensis [15] was 80-90% lysis of parasites throughout.
Consider `CCCCCCCCCCCCCCC(COCc1ccccc1)N(CC)CC` (configuration not stated), for which the Activity in the experiment with Leishmania donovani [1], in the experiment with Leishmania donovani [2], in the experiment on Leishmania amazonensis [9], in the experiment with Leishmania braziliensis [10], with Leishmania braziliensis [11] and in the experiment on Leishmania donovani [12] was 80-90% lysis of parasites throughout. In addition, the Activity with Leishmania donovani [13], in the experiment on Leishmania amazonensis [4], with Leishmania amazonensis [6], in the experiment with Leishmania amazonensis [7], in the experiment with Leishmania braziliensis [14] and with Leishmania braziliensis [15] was 80-90% lysis of parasites each time.
Consider `CCCCCCCCCCCCCCC(CO)NC(=O)OC(C)(C)C` (configuration not stated), for which the Activity in the experiment on Leishmania donovani [1], in the experiment with Leishmania donovani [2], with Leishmania amazonensis [9], in the experiment with Leishmania braziliensis [10], in the experiment with Leishmania braziliensis [11] and in the experiment on Leishmania donovani [12] was 80-90% lysis of parasites throughout. Further, the Activity in the experiment with Leishmania donovani [13], in the experiment with Leishmania amazonensis [4], with Leishmania amazonensis [6], in the experiment on Leishmania amazonensis [7], in the experiment on Leishmania braziliensis [14] and in the experiment on Leishmania braziliensis [15] was 80-90% lysis of parasites throughout.
